Data published in patent US4267180A, “Novel antibacterial amide compounds and process means for producing the same” (Warner-Lambert Company, priority 1980, dated 1981).

What was measured:
Experiment in all cases: Minimal Inhibitory Concentration, in vitro
Assay type in all cases: cell-based
Parameters in all cases: unit not given here
[1] = system: Enterobacter Cloacae IMM-11
Description: (§1) The compounds of the invention are new chemical compounds that are useful as pharmacological agents and especially as broad spectrum antibacterial agents. They are active in vitro against strains of both gram-positive and gram-negative bacteria.
(§2) Minimal Inhibitory Concentration

[2] = system: Klebsiella Pneumoniae MGH-2
Description: as §1, §2

Proteus Vulgaris 1810 = system: Proteus Vulgaris 1810
Description: as §1, §2

[3] = system: Pseudomonas Aeruginosa #28
Description: as §1, §2

[4] = system: Pseudomonas Aeruginosa UI-18
Description: as §1, §2

[5] = system: Serratia Marcescens IMM-16
Description: as §1, §2

Staph Aureus UC-76 = system: Staph Aureus UC-76
Description: as §1, §2

Compound	Minimal Inhibitory Concentration [1]	Minimal Inhibitory Concentration [2]	Minimal Inhibitory Concentration (Proteus Vulgaris 1810)	Minimal Inhibitory Concentration [3]	Minimal Inhibitory Concentration [4]	Minimal Inhibitory Concentration [5]	Minimal Inhibitory Concentration (Staph Aureus UC-76)
CCC(=O)N[C@@H](C)C(=O)Nc1ccc(-c2ncc(C(=O)N[C@@H](C(=O)N[C@@H]3C(=O)N4[C@@H]3SC(C)(C)[C@@H]4C(=O)O)c3ccc(O)cc3)c(O)n2)cc1 [N-Propionyl-L-Alanyl, N-[2-[4-(N-Propionyl-L-alanylamino)phenyl]-4-hydroxy-5-pyrimidinylcarbonyl]amoxicillin]	3.1	50	3.1	1.6	0.8	12.5	0.8
N-[2-[4-(N-Acetyl-DL-glutaminylamino)phenyl]-4-hydroxy-5-pyrimidinylcarbonyl]amoxicillin [N-Acetyl-L-Glutaminyl]	12.5	> 50	0.8	3.1	3.1	25	3.1
